Laboratory results from patent publication US20070032529A1, “Pyrazole compounds and their use as antidiabetes agents” (Japan Tobacco Inc., priority 2005, published 2007).

Biological target: T1, recombinant human liver glycogen phosphorylase (Homo sapiens, UniProt P06737)
T1 construct: made in house; host or cells: Sf9 insect cells (crude homogenate, diluted, used as the enzyme solution)
T1 sequence (P06737 1-847): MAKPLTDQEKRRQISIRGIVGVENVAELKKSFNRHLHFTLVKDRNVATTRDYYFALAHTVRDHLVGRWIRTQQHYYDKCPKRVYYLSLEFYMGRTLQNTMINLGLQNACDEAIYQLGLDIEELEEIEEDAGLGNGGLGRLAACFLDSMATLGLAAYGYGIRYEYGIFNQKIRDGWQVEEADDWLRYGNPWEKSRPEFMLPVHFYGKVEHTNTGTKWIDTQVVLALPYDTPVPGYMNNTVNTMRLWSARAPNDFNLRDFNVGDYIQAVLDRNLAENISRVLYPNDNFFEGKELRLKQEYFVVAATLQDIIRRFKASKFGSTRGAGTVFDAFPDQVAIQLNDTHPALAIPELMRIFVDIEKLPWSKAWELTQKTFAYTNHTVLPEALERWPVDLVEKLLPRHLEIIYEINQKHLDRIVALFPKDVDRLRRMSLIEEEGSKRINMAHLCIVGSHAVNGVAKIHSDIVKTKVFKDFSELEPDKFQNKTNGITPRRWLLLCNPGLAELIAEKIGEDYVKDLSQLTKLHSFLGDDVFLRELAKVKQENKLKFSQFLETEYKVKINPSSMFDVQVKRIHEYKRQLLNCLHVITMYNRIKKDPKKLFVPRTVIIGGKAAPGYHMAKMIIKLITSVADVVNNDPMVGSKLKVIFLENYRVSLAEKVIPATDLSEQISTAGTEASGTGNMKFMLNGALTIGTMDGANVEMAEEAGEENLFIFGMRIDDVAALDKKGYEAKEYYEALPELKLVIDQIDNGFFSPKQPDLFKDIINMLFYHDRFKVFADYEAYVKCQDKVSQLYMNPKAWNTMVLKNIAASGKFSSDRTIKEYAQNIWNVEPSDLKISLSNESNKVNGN
Assay: Measuring liver glycogen phosphorylase activity (forward reaction system, NADPH absorbance at 340 nm)
Assay type: biochemical
Settings: for inhibition at 0.3 µM: compound concentration 300 nmol (in parentheses); for IC50: enzyme inhibitory activity with respect to liver glycogen phosphorylase, class symbols
Method: [Pharmacological Test] 1. Exemplary Test (1) Method for Measuring Liver Glycogen Phosphorylase Activity
The measurement of glycogen phosphorylase activity was carried out by a method using the forward reaction system.
The measurement of glycogen phosphorylase activity using the forward reaction system was carried out as follows. Glucose-1-phosphate prepared from glycogen by glycogen phosphorylase was converted into glucono-δ-lactone 6-phosphate through transphosphorylation and dehydrogenation using phosphoglucomutase and glucose-6-phosphate dehydrogenase (G6PDH). NADPH generated from NADP during the dehydrogenation by G6PDH was detected.
A homogenate of the Sf9 cells which expressed exogenously recombinant human liver glycogen phosphorylase was diluted with 100 mmol/LBES buffer solution (pH 6.8, containing 2 mmol/L EDTA) and the dilution was used as the enzyme solution of human liver glycogen phosphorylase. As the substrate, a phosphate buffer (containing 16 mmol/L KH2PO4, 24 mmol/L Na2HPO4) was used. A mixture of 8 U/mL phosphoglucomutase and 60 U/mL G6PDH was prepared in BES buffer solution. Buffer solution (containing 1.4 mmol/L NADP, 30 mmol/L MgCl2, 8 μmol/L glucose-1,6-diphosphate, 8 mg/mL glycogen, 40 mmol/LBES, 0.8 mmol/L EDTA) for reaction and a glucose solution (containing 75 mmol/L glucose, 100 mmol/LBES, 2 mmol/L EDTA) were prepared individually. The test compound was dissolved in 1% DMSO solution.
The enzymatic reaction was begun by adding 20 μL of the recombinant human liver glycogen phosphorylase solution and 20 μL of the mixture of phosphoglucomutase and G6PDH to the mixture of 20 μL of the glucose solution, 20 μL of the substrate, 100 μL of the buffer solution for reaction and 20 μL of the test compound solution. As control, 1% DMSO solution was added instead of the test compound. The mixture without the substrate was used as blank. The absorbance at 340 nm was measured immediately after the reaction started. The absorbance at 340 nm was measured again after reacting at room temperature for 75 minutes. The enzymatic activity is a value obtained by subtracting the blank variation in absorbance over 75 minutes from the variation in absorbance over 75 minutes.
The inhibition rate (%) of the test compound was calculated by the expression “(1-enzymatic activity of test compound/enzymatic activity of control)×100.”
A linear equation was determined from the two concentration points with the 50% inhibition rate therebetween, and the IC50 value was calculated from the concentration at the intersection of the line with the 50% inhibition rate.
“IC50” in the tables indicates the above-described enzyme inhibitory activity with respect to liver glycogen phosphorylase, and the activity to inhibit liver glycogen phosphorylase was represented as ++ when the IC50 value (nmol/L) was less than 100 nmol/L, as + when the IC50 value was between 100 nmol/L and 300 nmol/L. When IC50 is 300 nmol/L or more, an inhibition rate (%) at a certain concentration of the compound (I) of the present invention is shown in Tables. For example, when the inhibition rate is 20% at a concentration of 300 nmol, the rate is described as 20% (300).

[1] = read-out: inhibition rate (%) at a certain concentration

SMILES	inhibition at 0.3 µM [1] [%]	IC50 [nM]	further results
CCCCN(C(=O)c1cc(NC(=O)c2cc(F)c(F)cc2Cl)[nH]n1)C1CCCCC1 [Example 1-89]		< 100	
CCCCN(CCCC)C(=O)c1cc(NC(=O)c2cc(F)c(F)cc2Cl)[nH]n1 [Example 1-93]		< 100	
CC(C)OCCN(C(=O)c1cc(NC(=O)c2cc(F)c(F)cc2Cl)[nH]n1)C1CCCCC1 [Example 1-101]		< 100	
CCOCCCN(C(=O)c1cc(NC(=O)c2cc(F)c(F)cc2Cl)[nH]n1)C1CCCCC1 [Example 1-102]		< 100	
CCC(CC)N(CCOC)C(=O)c1cc(NC(=O)c2cc(F)c(F)cc2Cl)[nH]n1 [Example 1-103]	21.6		
CCCCN(C(=O)c1cc(NC(=O)c2cc(F)c(F)cc2Cl)[nH]n1)C1CCC(C(=O)OC(C)(C)C)CC1 (centres unmarked) [Example 1-104]	32.3		
CCCCN(C(=O)c1cc(NC(=O)c2cc(F)c(F)cc2Cl)[nH]n1)C1CCSCC1 [Example 1-105]		100 to 300	
CCCCN(C(=O)c1cc(NC(=O)c2cc(F)c(F)cc2Cl)[nH]n1)C1CCNCC1 [Example 1-109]	33.3		
CCCCN(C(=O)c1cc(NC(=O)c2cc(F)c(F)cc2Cl)[nH]n1)C1CCN(C(=O)C(=O)OCC)CC1 [Example 1-112]	49.9		
CCCCN(C(=O)c1cc(NC(=O)c2cc(F)c(F)cc2Cl)[nH]n1)C1CCS(=O)(=O)CC1 [Example 1-114]	38.9		
CCCCN(C(=O)c1cc(NC(=O)c2cc(F)c(F)cc2Cl)[nH]n1)C1CC[S+]([O-])CC1 (centres unmarked) [Example 1-115]	39.7		
CCCN(C(=O)c1cc(NC(=O)c2cc(F)c(F)cc2Cl)[nH]n1)C1CCN(C(=O)CCC(=O)O)CC1 [Example 1-125]		< 100	
O=C(NCCc1ccccn1)c1cc(NC(=O)c2cc(F)c(F)cc2Cl)[nH]n1 [Example 1-139]			inhibition at 0.1 µM (compound concentration 100 nmol (in parentheses), read-out: inhibition rate (%) at a certain concentration): 22.9%

Now from value to compound, other results behind:

inhibition at 0.3 µM [1] [%]	IC50 [nM]	SMILES	further results
17		O=C(Nc1cc(C(=O)N(CCCCO)Cc2ccccc2)n[nH]1)c1cc(F)c(F)cc1Cl [Example 1-86]	
11.7		O=C(Nc1ccccc1N1CCOCC1)c1cc(NC(=O)c2cc(F)c(F)cc2Cl)[nH]n1 [Example 1-92]	
36.5		COCCN(CCOC)C(=O)c1cc(NC(=O)c2cc(F)c(F)cc2Cl)[nH]n1 [Example 1-94]	
	< 100	COCCN(C(=O)c1cc(NC(=O)c2cc(F)c(F)cc2Cl)[nH]n1)C1CCOCC1 [Example 1-97]	
	100 to 300	COCCNC(=O)c1cc(NC(=O)c2cc(F)c(F)cc2Cl)[nH]n1 [Example 1-106]	
45.3		COCCN(Cc1ccccc1)C(=O)c1cc(NC(=O)c2cc(F)c(F)cc2Cl)[nH]n1 [Example 1-108]	
	< 100	CCCCN(C(=O)c1cc(NC(=O)c2cc(F)c(F)cc2Cl)[nH]n1)C1CCN(C(C)=O)CC1 [Example 1-110]	
	100 to 300	CCCCN(C(=O)c1cc(NC(=O)c2cc(F)c(F)cc2Cl)[nH]n1)C1CCN(S(C)(=O)=O)CC1 [Example 1-111]	
	< 100	CCN(CC)C(=O)c1ccc(CNC(=O)c2cc(NC(=O)c3cc(F)c(F)cc3Cl)[nH]n2)cc1 [Example 1-118]	
	100 to 300	CCN(CC)C(=O)c1cccc(CNC(=O)c2cc(NC(=O)c3cc(F)c(F)cc3Cl)[nH]n2)c1 [Example 1-119]	
	< 100	CCNC(=O)c1ccc(CNC(=O)c2cc(NC(=O)c3cc(F)c(F)cc3Cl)[nH]n2)cc1 [Example 1-120]	
	< 100	CCNC(=O)c1cccc(CNC(=O)c2cc(NC(=O)c3cc(F)c(F)cc3Cl)[nH]n2)c1 [Example 1-121]	
	< 100	NC(=O)c1ccc(CNC(=O)c2cc(NC(=O)c3cc(F)c(F)cc3Cl)[nH]n2)cc1 [Example 1-122]	
	< 100	CCCN(C(=O)c1cc(NC(=O)c2cc(F)c(F)cc2Cl)[nH]n1)C1CCN(C(=O)CC(=O)O)CC1 [Example 1-124]	
	< 100	O=C(O)CCN(Cc1ccccc1)C(=O)c1cc(NC(=O)c2cc(F)c(F)cc2Cl)[nH]n1 [Example 1-131]	
	< 100	CCOC(=O)CCN(Cc1ccccc1)C(=O)c1cc(NC(=O)c2cc(F)c(F)cc2Cl)[nH]n1 [Example 1-132]	
